# Measurements from ChEMBL document CHEMBL1649497, “Comparison of the pharmacodynamics of biapenem in bronchial epithelial lining fluid in healthy volunteers given half-hour and three-hour intravenous infusions” (Antimicrob Agents Chemother, 2009).
# Legend:
# [1] = T>MIC in healthy human at epithelial lining fluid MIC of 4 ug/ml and compound dose of 0.3 […], iv after 3 hrs; format: functional
# [2] = T>MIC in healthy human at epithelial lining fluid MIC of 2 ug/ml and compound dose of 0.3 […], iv after 0.5 hrs; format: functional
# [3] = T>MIC in healthy human at epithelial lining fluid MIC of 2 ug/ml and compound dose of 0.3 […], iv after 3 hrs; format: functional
# [4] = T>MIC in healthy human at epithelial lining fluid MIC of 1 ug/ml and compound dose of 0.3 […], iv after 0.5 hrs; format: functional
# [5] = T>MIC in healthy human at epithelial lining fluid MIC of 1 ug/ml and compound dose of 0.3 […], iv after 3 hrs; format: functional
# [6] = T>MIC in healthy human at epithelial lining fluid MIC of 0.5 ug/ml and compound dose of 0.3 […], iv after 0.5 hrs; format: functional
# [7] = T>MIC in healthy human at epithelial lining fluid MIC of 0.5 ug/ml and compound dose of 0.3 […], iv after 3 hrs; format: functional
# [8] = T>MIC in healthy human at epithelial lining fluid MIC of 0.5 ug/ml and compound dose of 0.3 […], iv after […] hrs; format: functional
# [9] = T>MIC in healthy human at epithelial lining fluid MIC of 0.25 ug/ml and compound dose of 0.3 […], iv after 3 hrs; format: functional
# [10] = Cmax in plasma of healthy human at 0.3 […], iv after 0.5 hrs; format: ADME, organism-based; parameters: route intravenous
# [11] = Cmax in plasma of healthy human at 0.3 […], iv after 3 hrs; format: ADME, organism-based; parameters: route intravenous
# [12] = Tmax in plasma of healthy human at 0.3 […], iv after 0.5 hrs; format: ADME, organism-based
# [13] = Tmax in plasma of healthy human at 0.3 […], iv after 3 hrs; format: ADME, organism-based
# [14] = AUC in plasma of healthy human at 0.3 […], iv after 0.5 hrs; format: ADME, organism-based; parameters: time < 0.5 hr, route intravenous
# [15] = AUC in plasma of healthy human at 0.3 […], iv after 3 hrs; format: ADME, organism-based; parameters: time < 3 hr, route intravenous
# [16] = Cmax in epithelial lining fluid of healthy human at 0.3 […], iv after 0.5 hrs; format: ADME, organism-based; parameters: route intravenous
# [17] = Cmax in epithelial lining fluid of healthy human at 0.3 […], iv after 3 hrs; format: ADME, organism-based; parameters: route intravenous
# [18] = Tmax in epithelial lining fluid of healthy human at 0.3 […], iv after 0.5 hrs; format: ADME, organism-based
# [19] = Tmax in epithelial lining fluid of healthy human at 0.3 […], iv after 3 hrs; format: ADME, organism-based
# [20] = AUC in epithelial lining fluid of healthy human at 0.3 […], iv after 0.5 hrs; format: ADME, organism-based; parameters: time < 0.5 hr, route intravenous
# [21] = AUC in epithelial lining fluid of healthy human at 0.3 […], iv after 3 hrs; format: ADME, organism-based; parameters: time < 3 hr, route intravenous
# [22] = Drug level in epithelial lining fluid of healthy human at 0.3 […], iv after 0.5 hrs; format: ADME, organism-based; details: read-out: Drug uptake
# [23] = Drug level in epithelial lining fluid of healthy human at 0.3 […], iv after 3 hrs; format: ADME, organism-based; details: read-out: Drug uptake
# [24] = T>MIC in healthy human at plasma MIC of 4 ug/ml and compound dose of 0.3 […], iv after 0.5 hrs; format: functional
# [25] = T>MIC in healthy human at plasma MIC of 4 ug/ml and compound dose of 0.3 […], iv after 3 hrs; format: functional
# [26] = T>MIC in healthy human at plasma MIC of 2 ug/ml and compound dose of 0.3 […], iv after 0.5 hrs; format: functional
# [27] = T>MIC in healthy human at plasma MIC of 2 ug/ml and compound dose of 0.3 […], iv after 3 hrs; format: functional
# [28] = T>MIC in healthy human at plasma MIC of 1 ug/ml and compound dose of 0.3 […], iv after 0.5 hrs; format: functional
# [29] = T>MIC in healthy human at plasma MIC of 1 ug/ml and compound dose of 0.3 […], iv after 3 hrs; format: functional
# [30] = T>MIC in healthy human at plasma MIC of 0.5 ug/ml and compound dose of 0.3 […], iv after 0.5 hrs; format: functional
# [31] = T>MIC in healthy human at plasma MIC of 0.5 ug/ml and compound dose of 0.3 […], iv after 3 hrs; format: functional
# [32] = T>MIC in healthy human at plasma MIC of 0.25 ug/ml and compound dose of 0.3 […], iv after 0.5 hrs; format: functional
# [33] = T>MIC in healthy human at plasma MIC of 0.25 ug/ml and compound dose of 0.3 […], iv after 3 hrs; format: functional
# [34] = T>MIC in healthy human at epithelial lining fluid MIC of 4 ug/ml and compound dose of 0.3 […], iv after 0.5 hrs; format: functional
smiles,measurement,setting,value
C[C@@H](O)[C@H]1C(=O)N2C(C(=O)[O-])=C(SC3Cn4cnc[n+]4C3)[C@H](C)[C@H]12 (some centres undefined) [BIAPENEM],fT>MIC,[1],5.1%
same,fT>MIC,[2],5.8%
same,fT>MIC,[3],17.4%
same,fT>MIC,[4],15.5%
same,fT>MIC,[5],29.1%
same,fT>MIC,[6],25.5%
same,fT>MIC,[7],41.4%
same,fT>MIC,[8],34.6%
same,fT>MIC,[9],52.2%
same,Cmax,[10],18100 ng/mL
same,Cmax,[11],6800 ng/mL
same,Tmax,[12],0.5 h
same,Tmax,[13],3 h
same,AUC at 0.5 h,[14],25000 ng·h/mL
same,AUC at 3 h,[15],25400 ng·h/mL
same,Cmax,[16],2350 ng/mL
same,Cmax,[17],4360 ng/mL
same,Tmax,[18],1.5 h
same,Tmax,[19],1.8 h
same,AUC at 0.5 h,[20],6400 ng·h/mL
same,AUC at 3 h,[21],13300 ng·h/mL
same,concentration at 0.5 h,[22],3480 ng/mL
same,concentration at 3 h,[23],1330 ng/mL
same,fT>MIC,[24],12.6%
same,fT>MIC,[25],22.3%
same,fT>MIC,[26],21.1%
same,fT>MIC,[27],34.3%
same,fT>MIC,[28],31.9%
same,fT>MIC,[29],43.8%
same,fT>MIC,[30],43.1%
same,fT>MIC,[31],53.7%
same,fT>MIC,[32],53.5%
same,fT>MIC,[33],64.5%
same,fT>MIC,[34],0%
